Measured values from patent US12304890B2, “R-type pyridyloxycarboxylic acid, salt and ester derivative thereof, and preparation method therefor, and herbicidal composition and application thereof” (Qingdao Kingagroot Chemical Compound Co., Ltd., priority 2018, dated 2025).

Assays:
Type in all cases: in vivo
Echinochloa crusgalli = experiment: Post-emergence test experiment, Echinochloa crusgalli; settings: 1000 g a.i./ha, 3 weeks in greenhouse, fresh weight inhibition
Outline: (§1)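 Test compounds dissolve in acetone, receive tween-80 and a methyl oleate emulsible concentrate synergist (1.5 liters per hectare), then are diluted in water and sprayed onto 2-3 leaf stage plants. After 3 weeks of greenhouse culture, fresh weight inhibition is determined.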

Digitaria sanguinalis = experiment: Post-emergence test experiment, Digitaria sanguinalis; settings: 1000 g a.i./ha, 3 weeks in greenhouse, fresh weight inhibition
Outline: as §1

[1] = test system: Monocotyledonous and dicotyledonous weed seeds and main crop seeds; experiment: Post-emergence test experiment, other weeds and crops (Table 4, 1000 g a.i./ha); settings: 3 weeks in greenhouse, fresh weight inhibition
Outline: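 Growth inhibition is scored on fresh weight. Spray solutions were made in acetone with tween-80, diluted in water, plus 1.5 L/ha methyl oleate emulsible concentrate. Plants from greenhouse-grown weed and crop seeds were treated post-emergence at 2-3 leaves, 2 weeks after sowing.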

Row | SMILES | Activity level (growth inhibition rate), Echinochloa crusgalli (Echinochloa crusgalli) | Activity level (growth inhibition rate), Digitaria sanguinalis (Digitaria sanguinalis) | Activity level (growth inhibition rate), Abutilon theophrasti Medic. [1] | Activity level (growth inhibition rate), Galium aparine [1] | Activity level (growth inhibition rate), Monochoria Vaginalis [1]
1 | CCCC(C)SC(=O)[C@@H](C)Oc1nc(F)c(Cl)c(N)c1Cl (stereo partly drawn) [Compound 2-94] | 5 (Level 5: the growth inhibition rate is greater than 85%) | 5 (Level 5: the growth inhibition rate is greater than 85%) | 5 (Level 5: the growth inhibition rate is greater than 85%) | 5 (Level 5: the growth inhibition rate is greater than 85%) | 5 (Level 5: the growth inhibition rate is greater than 85%)
2 | CC(Oc1nc(F)c(Cl)c(N)c1Cl)C(=O)OCc1cccc(C(F)(F)F)c1 (stereo not drawn) [Compound 2-329] | 5 (Level 5: the growth inhibition rate is greater than 85%) | 5 (Level 5: the growth inhibition rate is greater than 85%) | 5 (Level 5: the growth inhibition rate is greater than 85%) | 5 (Level 5: the growth inhibition rate is greater than 85%) | 5 (Level 5: the growth inhibition rate is greater than 85%)
3 | C[C@@H](Oc1nc(F)c(Cl)c(N)c1Cl)C(=O)SC(C)(C)C [Compound 2-84] | 5 (Level 5: the growth inhibition rate is greater than 85%) | 5 (Level 5: the growth inhibition rate is greater than 85%) | 5 (Level 5: the growth inhibition rate is greater than 85%) | 5 (Level 5: the growth inhibition rate is greater than 85%) | 5 (Level 5: the growth inhibition rate is greater than 85%)
4 | CC(Oc1nc(F)c(Cl)c(N)c1Cl)C(=O)OCC(F)(F)C(F)(F)F (stereo not drawn) [Compound 2-282] | 5 (Level 5: the growth inhibition rate is greater than 85%) | 5 (Level 5: the growth inhibition rate is greater than 85%) | 5 (Level 5: the growth inhibition rate is greater than 85%) | 5 (Level 5: the growth inhibition rate is greater than 85%) | 5 (Level 5: the growth inhibition rate is greater than 85%)
5 | C[C@@H](Oc1nc(F)c(Cl)c(N)c1Cl)C(=O)OCc1cccnc1 [Compound 2-346] | 5 (Level 5: the growth inhibition rate is greater than 85%) | 5 (Level 5: the growth inhibition rate is greater than 85%) | 5 (Level 5: the growth inhibition rate is greater than 85%) | 5 (Level 5: the growth inhibition rate is greater than 85%) | 5 (Level 5: the growth inhibition rate is greater than 85%)
6 | CC(C)CCCCCSC(=O)[C@@H](C)Oc1nc(F)c(Cl)c(N)c1Cl [Compound 2-160] | 5 (Level 5: the growth inhibition rate is greater than 85%) | 5 (Level 5: the growth inhibition rate is greater than 85%) | 5 (Level 5: the growth inhibition rate is greater than 85%) | 5 (Level 5: the growth inhibition rate is greater than 85%) | 5 (Level 5: the growth inhibition rate is greater than 85%)
7 | CCCCCCCCOC(=O)[C@@H](C)Oc1nc(F)c(Cl)c(N)c1Cl [Compound 2-155] | 5 (Level 5: the growth inhibition rate is greater than 85%) | 5 (Level 5: the growth inhibition rate is greater than 85%) | 5 (Level 5: the growth inhibition rate is greater than 85%) | 5 (Level 5: the growth inhibition rate is greater than 85%) | 5 (Level 5: the growth inhibition rate is greater than 85%)
8 | CC(Oc1nc(F)c(Cl)c(N)c1Cl)C(=O)OCc1cccc(Br)c1 (stereo not drawn) [Compound 2-322] | 5 (Level 5: the growth inhibition rate is greater than 85%) | 5 (Level 5: the growth inhibition rate is greater than 85%) | 5 (Level 5: the growth inhibition rate is greater than 85%) | 5 (Level 5: the growth inhibition rate is greater than 85%) | 5 (Level 5: the growth inhibition rate is greater than 85%)
9 | Cc1ccccc1COC(=O)C(C)Oc1nc(F)c(Cl)c(N)c1Cl (stereo not drawn) [Compound 2-302] | 5 (Level 5: the growth inhibition rate is greater than 85%) | 5 (Level 5: the growth inhibition rate is greater than 85%) | 5 (Level 5: the growth inhibition rate is greater than 85%) | 5 (Level 5: the growth inhibition rate is greater than 85%) | 5 (Level 5: the growth inhibition rate is greater than 85%)
10 | CCCCC(CC)COC(=O)[C@@H](C)Oc1nc(F)c(Cl)c(N)c1Cl (stereo partly drawn) [Compound 2-157] | 5 (Level 5: the growth inhibition rate is greater than 85%) | 5 (Level 5: the growth inhibition rate is greater than 85%) | 5 (Level 5: the growth inhibition rate is greater than 85%) | 5 (Level 5: the growth inhibition rate is greater than 85%) | 5 (Level 5: the growth inhibition rate is greater than 85%)
11 | C[C@@H](Oc1nc(F)c(Cl)c(N)c1Cl)C(=O)SCc1ccncc1 [Compound 2-345] | 5 (Level 5: the growth inhibition rate is greater than 85%) | 5 (Level 5: the growth inhibition rate is greater than 85%) | 5 (Level 5: the growth inhibition rate is greater than 85%) | 5 (Level 5: the growth inhibition rate is greater than 85%) | 5 (Level 5: the growth inhibition rate is greater than 85%)
12 | CC(C)CCSC(=O)[C@@H](C)Oc1nc(F)c(Cl)c(N)c1Cl [Compound 2-90] | 5 (Level 5: the growth inhibition rate is greater than 85%) | 5 (Level 5: the growth inhibition rate is greater than 85%) | 5 (Level 5: the growth inhibition rate is greater than 85%) | 5 (Level 5: the growth inhibition rate is greater than 85%) | 5 (Level 5: the growth inhibition rate is greater than 85%)
13 | COC(=O)OC(C)OC(=O)C(C)Oc1nc(F)c(Cl)c(N)c1Cl (stereo not drawn) [Compound 2-296] | 5 (Level 5: the growth inhibition rate is greater than 85%) | 5 (Level 5: the growth inhibition rate is greater than 85%) | 5 (Level 5: the growth inhibition rate is greater than 85%) | 5 (Level 5: the growth inhibition rate is greater than 85%) | 5 (Level 5: the growth inhibition rate is greater than 85%)
14 | CC(Oc1nc(F)c(Cl)c(N)c1Cl)C(=O)SCc1cccc(Br)c1 (stereo not drawn) [Compound 2-323] | 5 (Level 5: the growth inhibition rate is greater than 85%) | 5 (Level 5: the growth inhibition rate is greater than 85%) | 5 (Level 5: the growth inhibition rate is greater than 85%) | 5 (Level 5: the growth inhibition rate is greater than 85%) | 5 (Level 5: the growth inhibition rate is greater than 85%)
15 | CC(Oc1nc(F)c(Cl)c(N)c1Cl)C(=O)[S-].C[N+](C)(C)C (stereo not drawn) [Compound 2-4] | 5 (Level 5: the growth inhibition rate is greater than 85%) | 5 (Level 5: the growth inhibition rate is greater than 85%) | 5 (Level 5: the growth inhibition rate is greater than 85%) | 5 (Level 5: the growth inhibition rate is greater than 85%) | 5 (Level 5: the growth inhibition rate is greater than 85%)
